Assay results as given in PubChem BioAssay AID489022 (Sanford-Burnham Center for Chemical Genomics, 2010).
“And” between values parts separate entries of the source, which are not always exact repeats. Equal entries are not always repeated. The source made the active and inactive calls. No rule for the calls is given here.

Test system: HEK-293T NF-kB luciferase reporter, luminescence counterscreen
Test: inhibitors of NF-kB luciferase reporter, HEK-293T, dose response, counter-screen for BCR NF-kB inhibitor project, luminescence, B-cell screen hits (AID 489022)

Row | SMILES | IC50
1 | N=c1c(C(=O)NC2CCCC2)cc2c(=O)n3ccccc3nc2n1CCN1CCOCC1 | > 80 µM (inactive)
2 | N=c1c2c(n(Cc3ccc(Cl)cc3Cl)c3c1CCC3)CCCC2 | 3.43 µM
3 | O=C(Nc1nc2c(Br)cc(Br)cc2c(=O)s1)c1ccco1 | > 80 µM (inactive)
4 | O=c1c(C=NCCCO)c(-c2ccccc2)[nH]n1-c1nc2ccccc2s1 | > 80 µM (inactive)
5 | Cc1ccc(C2(c3ccc(C)cc3)CC2C(=O)Nc2ccc([N+](=O)[O-])cc2O)cc1 (centres undefined) | 4.59 µM
6 | COc1cc(-c2nc3ccc(N4CCN(C)CC4)cc3[nH]2)cc(OC)c1OC | > 80 µM (inactive)
7 | COc1cc(-c2nc(C(=O)NCC3CCCO3)cc3c2[nH]c2ccccc23)cc(OC)c1OC (centres undefined) | 13.7 µM
8 | C/C=C(/C)C(=O)OC1Cc2c(ccc3ccc(=O)oc23)OC1(C)C (centres undefined) | 23.5 µM (inactive)
9 | COc1cc2c3c(c1)c(N=NC(N)=S)c(O)n3C(C)(C)C=C2C | > 80 µM (inactive)
10 | CCN1C(=O)c2cccc3c(NC(=O)c4cccc(N5C(=O)CCC5=O)c4)ccc1c23 | > 80 µM (inactive)
11 | Cc1noc(C)c1CSc1nc2[nH]ncc2c(=O)n1-c1ccccc1 | 7.74 µM
12 | CC(C)(C)c1ccc(-c2cc(N)n[nH]2)cc1 | > 80 µM (inactive)
13 | COC(=O)c1cc(NC(=O)Nc2cc(OC)ccc2OC)cc(C(=O)OC)c1 | > 80 µM (inactive)
14 | COc1cccc(N2CCN(c3ncnc4c3[nH]c3ccc(F)cc34)CC2C)c1 (centres undefined) | 0.66 µM
15 | COc1ccc(C(=O)Nc2cccc(NC(=O)c3ccc(OC)c(OC)c3)n2)cc1OC | 15.4 µM
16 | C=CCOc1ccccc1CN(C(=O)CCl)c1ccc2c(c1)OCO2 | 28.1 µM (inactive)
17 | CC1CC(C)(C)Nc2ccc(OC(=O)c3ccco3)cc21 (centres undefined) | 8.89 µM
18 | N#Cc1ccccc1COc1ccc(/C=C/C(=O)O)cc1 | 6.03 µM
19 | COc1cc(NC(=O)c2ccco2)c(OC)cc1NC(=O)c1cc(OC)c(OC)c(OC)c1 | 17.7 µM
20 | Cc1nn(C(C)(C)C)c(C)c1/C=N/OC(=O)Nc1ccc(Cl)c(Cl)c1 | < 0.16 µM
21 | CC(C)(C)C(=O)/C(=C/c1ccncc1)n1cncn1 | 20.9 µM (inactive)
22 | CCOc1ccc(-c2c[n+]3c(n2-c2ccccc2)CCCCC3)cc1 | 3.28 µM
23 | CCCS(=O)(=O)Nc1cccc(-c2ccc3nnc(C)n3n2)c1 | > 80 µM (inactive)
24 | COc1ccc(C(=O)N/N=C/c2sc(N3CCOCC3)nc2-c2ccccc2)cc1OC | 14 µM
25 | CCc1ccc(/C=C2/SC(=S)N(CCC(=O)Nc3cccc(C(=O)O)c3)C2=O)cc1 | > 80 µM (inactive)

Row | SMILES | IC50
26 | COc1ccc(N(CC(=O)N2CCN(c3ccc(Cl)cc3)CC2)S(=O)(=O)c2c(C)n[nH]c2C)cc1 | 15.3 µM
27 | COc1ccc(OC)c(C2CC(=O)Nc3cc(OC)c(OC)c(OC)c32)c1 (centres undefined) | > 80 µM (inactive)
28 | CCOC(=O)N1CCN(c2ncnc3c2[nH]c2ccc(OC)cc23)CC1 | 20.1 µM (inactive)
29 | COCCCNC(=O)COc1ccc(-c2nccc(-c3ccccn3)n2)cc1 | 48.1 µM (inactive)
30 | O=C1CCCc2c1[nH]c1ccc(CN3CCCCC3)cc21 | > 80 µM (inactive)
31 | O=C(NNC(=O)C12CC3CC(CC(C3)C1)C2)c1cccc(O)c1 | > 80 µM (inactive)
32 | COc1cccc(Cn2nnc(C(=O)Nc3cc(Cl)ccc3OC)c2N)c1 | > 80 µM (inactive)
33 | Cc1cc(OCC(=O)Nc2ccc(CCO)cc2)c2c(C)c(C)c(=O)oc2c1 | > 80 µM (inactive)
34 | CCCNC(=O)c1ccc(N2CCC3(CC2)CC(c2cccc(Br)c2)=NO3)c(NC(=O)c2ccc(Cl)c([N+](=O)[O-])c2)c1 | > 80 µM (inactive)
35 | CC1CCN(CCCNC(=O)COc2cc(=O)n(C)c3ccccc23)CC1 | > 80 µM (inactive)
36 | Cc1c(NC(=O)/C=C/c2cn(-c3ccccc3)nc2-c2ccccc2)c(=O)n(-c2ccccc2)n1C | > 80 µM (inactive)
37 | CC1=CC(C)(C)Nc2ccc(OC(=O)CN3C(=O)c4ccccc4C3=O)cc21 | 9.25 µM
38 | COc1ccc(-c2noc(N3CCC(C(=O)Nc4ccc(OC)c(OC)c4)CC3)n2)cc1 | > 80 µM (inactive)
39 | Cc1cccc(C(=O)Nc2ccc(CC(=O)O)cc2)c1 | 45.2 µM (inactive)
40 | Cc1ccc(/C=C2\SC(=S)N(CCCC(=O)NNC(=O)c3ccccc3O)C2=O)cc1 | 5.48 µM
41 | O=C(Nc1cccc(S(=O)(=O)Nc2ccc(Cl)cc2)c1)c1ccc(Cl)nc1 | 0.79 µM
42 | Cc1cc(OCC(=O)NC2CC2)c2c(C)c(C)c(=O)oc2c1 | > 80 µM (inactive)
43 | ClCc1nnc(-c2ccccc2)o1 | > 80 µM (inactive)
44 | Cc1cc(C)cc(N2C(=O)NC(=O)/C(=C\c3cccn3-c3ccccc3)C2=O)c1 | > 80 µM (inactive)
45 | COc1cc(-c2nc3n(n2)C(c2ccc(F)cc2)C2=C(CCCC2=O)N3)cc(OC)c1OC (centres undefined) | 30.4 µM (inactive)
46 | CC(C)(C)c1ccc(-c2nnc(SCC(=O)NC3CC3)o2)cc1 | 63.1 µM (inactive)
47 | C/C(=N\Nc1nc(Nc2ccccc2)nc(N2CCOCC2)n1)c1cccs1 | > 80 µM (inactive)
48 | CCn1c(=O)cc(SCC(=O)N2CCN(C)CC2)c2ccccc21 | > 80 µM (inactive)
49 | CC(C)C[C@@H](N)c1nnc(SCC(=O)c2ccc(Cl)cc2)o1 | 31.9 µM (inactive)
50 | Cc1ccc(/C=C2/SC(=S)N(CCCC(=O)Nc3ccc(O)cc3)C2=O)cc1 | > 80 µM (inactive)

Row | SMILES | IC50
51 | Oc1cc(O)cc(-c2cc3ccc(O)cc3o2)c1 | > 80 µM (inactive)
52 | COc1ccc(-c2nsc(SCC(=O)Nc3cc(C)on3)n2)cc1 | > 80 µM (inactive)
53 | CCn1c(=O)cc(OCC(=O)NCc2ccc(C)o2)c2ccccc21 | > 80 µM (inactive)
54 | Cc1c(CCO)c(=O)oc2n[nH]c(-c3ccccc3)c12 | > 80 µM (inactive)
55 | COc1ccc(NC(=O)c2cc3c(Cl)nc4ccccc4c3s2)cc1OC | > 80 µM (inactive)
56 | O=C(CCCN1C(=O)S/C(=C\C=C\c2ccccc2)C1=O)Nc1ccc(O)cc1 | > 80 µM (inactive)
57 | CCN(CC)c1ccc(/C=N/N=C(c2ccccc2)c2ccccc2)c(O)c1 | > 80 µM (inactive)
58 | COc1ccc(/C=C2/SC(=S)N(CCCC(=O)Nc3ccc(O)cc3)C2=O)cc1OC | > 80 µM (inactive)
59 | CCOc1ccc(/C=C2\SC(=S)N(CCCC(=O)NCCCN3CCOCC3)C2=O)cc1 | > 80 µM (inactive)
60 | COc1cc(-c2[nH]nc3c2C(c2ccco2)C(C#N)=C(N)O3)cc(OC)c1OC (centres undefined) | > 80 µM (inactive)
61 | Cc1ccc(-c2c[n+]3c(n2-c2ccccc2)SCC3)cc1 | 7.4 µM
62 | Cc1c(CCC(=O)N2CCC(C(=O)O)CC2)c(=O)oc2cc3oc4c(c3cc12)CCCC4 | 12.8 µM
63 | COc1ccc(-n2ncc3c(N4CCC(C(N)=O)CC4)ncnc32)cc1 | > 80 µM (inactive)
64 | CCN(CC)c1ccc(/C=C2/C(=O)ON=C2C)cc1 | > 80 µM (inactive)
65 | Cc1ccc(C(=O)N2CCCC(c3ccc(Cl)cc3)=N2)cc1 | 36.5 µM (inactive)
66 | C[C@H]1CCC/C=C/[C@@H]2C[C@H](O)C[C@H]2[C@H](O)/C=C/C(=O)O1 | 0.42 µM and 0.52 µM
67 | CCC(C)NC(=O)c1c(N)n(/N=C/c2ccccn2)c2nc3ccccc3nc12 (centres undefined) | 34.8 µM (inactive)
68 | CC1CN(S(=O)(=O)c2ccc(C(=O)Nc3nc(-c4cc5ccccc5o4)cs3)cc2)CC(C)O1 (centres undefined) | < 0.16 µM
69 | CCOC(=O)c1nn(-c2ccccc2)c(C#N)c1NC(=O)c1nn(CC)cc1Br | > 80 µM (inactive)
70 | Cc1ccc(-c2nn3c(C)nnc3c3ccccc23)cc1S(=O)(=O)N1CCN(CCO)CC1 | 22.4 µM (inactive)
71 | CCOc1ccc(-c2nc(CSCC(=O)NCc3ccco3)c(C)o2)cc1 | 18.9 µM
72 | O=C(CN1C(=O)c2ccccc2S1(=O)=O)c1ccccc1Cl | 7 µM
73 | Cc1cc(C)cc(NC(=O)c2nnn(Cc3cc(C)ccc3C)c2N)c1 | 4.79 µM
74 | CCCc1nc2c(C)cc(-c3nc4ccccc4n3C)cc2n1Cc1ccc(-c2ccccc2C(=O)O)cc1 | > 80 µM (inactive)
75 | Cc1ccc(C(=O)CSc2nnc(COc3ccccc3)o2)cc1 | 40.9 µM (inactive)

Row | SMILES | IC50
76 | CCC(C)(C)c1ccc(OCCCC[n+]2ccccc2)c(C(C)(C)CC)c1 | 8.65 µM
77 | CCn1c(=O)c2cc(C(=O)NCc3cccs3)sc2c2ccccc21 | > 80 µM (inactive)
78 | Cn1c(=O)n(C)c2cc(NS(=O)(=O)c3ccccc3)ccc21 | 59.3 µM (inactive)
79 | CCC(=O)N(C1=C(NC)C(=O)c2ccccc2C1=O)C(C)C | > 80 µM (inactive)
80 | CC(C)(C)c1ccc(-c2noc(CCC(=O)NCc3ccco3)n2)cc1 | 0.49 µM
81 | CCNC(=O)CCc1nc(-c2ccc(C(C)(C)C)cc2)no1 | 34.9 µM (inactive)
82 | O=C(CN1C(=O)c2ccccc2S1(=O)=O)N1CCc2ccccc21 | 0.897 µM
83 | CCC(CC)C(=O)Nc1ccc(Sc2ccc([N+](=O)[O-])cc2)cc1 | 13.7 µM
84 | Cc1ccc(-c2cc(C(=O)NCCCN3CCOCC3)no2)cc1 | > 80 µM (inactive)
85 | COc1ccc(C(=O)Nc2nnc(Cc3cccs3)s2)cc1OC | > 80 µM (inactive)
86 | CC(C)(C)c1ccc(-c2noc(CCC(=O)NCC3CCCO3)n2)cc1 (centres undefined) | 1.22 µM
87 | C=CCn1c(O)c(C(C)=NC(C)c2ccccc2)c(=O)[nH]c1=O (centres undefined) | 60.2 µM (inactive)
88 | COc1ccc(/C=C2\SC(=S)N(CCC(=O)Nc3cccc(O)c3)C2=O)cc1 | > 80 µM (inactive)
89 | COc1ccc(OCc2cccc(C(=O)Nn3cc([N+](=O)[O-])cn3)c2)cc1 | 11.9 µM
90 | Cc1c(CCC(=O)N2CCC[C@H]2C(=O)O)c(=O)oc2cc3oc4c(c3cc12)CCCC4 | 8.43 µM
91 | Cc1nc2cc(-c3ccccc3)nn2c(C)c1CCC(=O)NCc1ccco1 | > 80 µM (inactive)
92 | CCOc1ccc(-c2cc(CCCC(=O)NCc3ccco3)no2)cc1 | 22.1 µM (inactive)
93 | Cc1ccc(/C=C2\SC(=S)N(CCC(=O)NNC(=O)c3ccncc3)C2=O)cc1 | > 80 µM (inactive)
94 | CCn1c(=O)cc(SCC(=O)N2CCCCC2)c2ccccc21 | > 80 µM (inactive)
95 | COc1ccc(C2=NCc3nnc(C)n3-c3ccc(Cl)cc32)cc1Cl | > 80 µM (inactive)
96 | CC(C)OCCCNC(=O)c1c(N)n(/N=C/c2ccccn2)c2nc3ccccc3nc12 | > 80 µM (inactive)
97 | CC(=C/c1ccco1)/C=N/NC(=O)CSc1nnc(SCc2ccc(C)cc2)s1 | > 80 µM (inactive)
98 | CNC(=O)c1cccn(Cc2ccc(C(F)(F)F)cc2)c1=O | 35.5 µM (inactive)
99 | CC(C)Oc1ccc(C(=O)Nc2ccc(N(C)C)cc2)cc1 | > 80 µM (inactive)
